What was measured:
[1] = tested on: endometriotic lesions; experiment: Callithrix jacchus endometriosis model; format: in vivo; conditions: 5 mg/kg orally once per day, 6 weeks
Protocol: The in vivo efficacy of compound 76 was tested in a non-human primate endometriosis model in marmoset monkeys.
Marmoset monkeys (Callithrix jacchus) are non-menstruating species in which endometriosis was induced by injection of endometrial tissue into the peritoneal cavity (Einspanier, Lieder et al, 2006). 6-12 year old female common marmosets with established endometriosis were employed (body weight between 358 g and 520 g) and distributed into 2 groups, with a size of n=5 animals per group. Prior to the actual start of the treatment, the animals were subjected to a laparotomy and examined for the presence of endometriotic lesions on the bladder, the uterus and the ovaries to measure each lesion's area. The randomization of animals into the two treatment groups was performed with respect to the initial lesion status at the first laparotomy. The endometriosis severity based on total lesion area per animal was distributed similarly across the groups.
For both the treatment group (5 mg/kg of compound 76) and vehicle treated group, the sum of total lesion area/size [cm^2] per animal, with respect to lesion area and lesion number, was determined and defined as pre-treatment status. 6 weeks later the treatment was started. The test compounds were administered orally once per day in capsules (PC Caps® capsules, Capsugel). To adapt for the intended dose, a trituration of the active compound with lactose was prepared and the exact dose was filled into the individual capsules. Each capsule was separately coated with salvia resistant coating (Eudragit EPO; Evonik). After the end of a 6 weeks treatment period, a second laparotomy was carried out and the number and size of the lesions on uterus, ovaries and bladder was determined with respect to total lesion size/area and defined as post-treatment status.

[2] = target: recombinant human AKR1C3 (Homo sapiens (Human), UniProt P42330); experiment: AKR1C3-inhibitory activity assay (Coumberone to Coumberol fluorescence); format: biochemical; conditions: recombinant human AKR1C3, 15 min pre-incubation, 10 μM NADPH, 0.3 μM Coumberone
How it was run: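 The enzyme was E. coli-expressed, GST-cleaved AKR1C3 (~1 nM), preincubated 15 min with compound in 50 mM potassium phosphate pH 7, 1 mM DTT, 0.01% BSA. NADPH-dependent reduction of Coumberone (0.3 μM final) with 10 μM NADPH final ran typically 90 min at 22 °C in the linear range. After an EM-1404 stop, Coumberol fluorescence (ex 380/em 520 nm) was normalized to no-inhibitor and no-enzyme controls.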

[3] = tested on: human primary adipocytes; experiment: Inhibition of testosterone formation from androstenedione in human primary adipocytes; format: cell-based; conditions: 1 μM androstenedione, 1 μM or 10 μM compound, 48 h, donors with BMI 26 and 30
Protocol: Cat# SA-1012-3 12 well Platte). Adipocytes were incubated in Adipocyte Basal Medium (Fa. ZenBio, Cat# BM-1)+1% FCS+2.5 μg/ml Amphotericin B (Fa. […] Androstenedione served as a substrate for the formation into testosterone. After the incubation adipocytes were collected and testosterone and androstenedione concentrations were determined by LC/MS at the “Bioanalytical Service and research provider Pharm-Analyt”. Inhibition of the conversion of androstenedione to testosterone by compound 76 is determined as Testosterone/Androstenedione ratio [%]. […] FIG. 1: […] The testosterone/androstenedione ratio [%] is shown.

Chain of recombinant human AKR1C3 (P42330 whole entry): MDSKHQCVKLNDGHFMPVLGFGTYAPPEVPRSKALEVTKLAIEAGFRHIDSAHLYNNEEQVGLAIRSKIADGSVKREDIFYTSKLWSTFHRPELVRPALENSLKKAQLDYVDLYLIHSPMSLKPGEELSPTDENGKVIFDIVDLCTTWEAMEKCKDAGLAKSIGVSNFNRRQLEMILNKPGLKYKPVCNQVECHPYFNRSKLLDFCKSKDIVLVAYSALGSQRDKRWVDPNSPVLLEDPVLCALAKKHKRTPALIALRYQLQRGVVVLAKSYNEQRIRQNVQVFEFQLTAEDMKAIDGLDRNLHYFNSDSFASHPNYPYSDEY

O=C(c1cnn[n-]1)N1CC2CCC(C1)N2S(=O)(=O)c1cccc(F)c1.[Na+] [Example 76, sodium 5-({8-[(3-fluorophenyl)sulfonyl]-3,8-diazabicyclo[3.2.1]oct-3-yl}carbonyl)-1,2,3-triazol-1-ide]
mean reduction of the total lesion size compared to baseline ([1]; n=5): 68.9% | ratio of total lesion size/area post- versus pre-treatment ([1]; all treated animals): below 1 | total lesion size post-treatment versus pre-treatment ([1]; marmosets with established endometriosis): strongly reduced | IC50 [2]: 1.1 nM | formation of testosterone from androstenedione (Testosterone/Androstenedione ratio) [3]: inhibited

Source: patent publication US10167293B2, “[8-(phenylsulfonyl)-3,8-diazabicyclo[3.2.1]oct-3-yl](1H-1,2,3-triazol-4-yl)methanones” (BAYER PHARMA AKTIENGESELLSCHAFT, priority 2016, dated 2019)
